Patent publication US12522602B2, “Derivatives having 2,3-dihydro-1H-indene or 2,3-dihydrobenzofuran moiety or pharmaceutically acceptable salt thereof and pharmaceutical compositions comprising the same” (YUHAN CORPORATION, priority 2019, dated 2026)
pIC50: −log10 of the molar value.

Test system: GM1 production in Jurkat cells
Assay: cells
Format: cell-based
Settings: Homo sapiens, Jurkat, 72 h

Row | SMILES | pIC50
1 | O=C(NC1CCc2cc(-c3ccc(F)cc3)ccc21)O[C@@H]1CN2CCC1CC2 (stereo partly drawn) [Example 1, (S)-quinuclidin-3-yl (5-(4-fluorophenyl)-2,3-dihydro-1H-inden-1-yl)carbamate] | 6.86
2 | O=C(NC1CCc2cc(-c3ccc(Cl)cc3)ccc21)O[C@@H]1CN2CCC1CC2 (stereo partly drawn) [Example 2, (S)-quinuclidin-3-yl (5-(4-chlorophenyl)-2,3-dihydro-1H-inden-1-yl)carbamate] | 6.70
3 | O=C(NC1CCc2cc(-c3ccc(C(F)(F)F)cc3)ccc21)O[C@@H]1CN2CCC1CC2 (stereo partly drawn) [Example 3, (S)-quinuclidin-3-yl (5-(4-(trifluoromethyl)phenyl)-2,3-dihydro-1H-inden-1-yl)carbamate] | 6.85
4 | O=C(NC1CCc2cc(-c3ccc(OC(F)(F)F)cc3)ccc21)O[C@@H]1CN2CCC1CC2 (stereo partly drawn) [Example 4, (S)-quinuclidin-3-yl (5-(4-(trifluoromethoxy)phenyl)-2,3-dihydro-1H-inden-1-yl)carbamate] | 7.02
5 | O=C(NC1CCc2cc(-c3cccc(F)c3)ccc21)O[C@@H]1CN2CCC1CC2 (stereo partly drawn) [Example 5, (S)-quinuclidin-3-yl (5-(3-fluorophenyl)-2,3-dihydro-1H-inden-1-yl)carbamate] | 7.15
6 | O=C(NC1CCc2cc(-c3cccc(Cl)c3)ccc21)O[C@@H]1CN2CCC1CC2 (stereo partly drawn) [Example 6, (S)-quinuclidin-3-yl (5-(3-chlorophenyl)-2,3-dihydro-1H-inden-1-yl)carbamate] | 7.40
7 | O=C(NC1CCc2cc(-c3cccc(C(F)(F)F)c3)ccc21)O[C@@H]1CN2CCC1CC2 (stereo partly drawn) [Example 7, (S)-quinuclidin-3-yl (5-(3-(trifluoromethyl)phenyl)-2,3-dihydro-1H-inden-1-yl)carbamate] | 7.43
8 | O=C(NC1CCc2cc(-c3cccc(OC(F)(F)F)c3)ccc21)O[C@@H]1CN2CCC1CC2 (stereo partly drawn) [Example 8, (S)-quinuclidin-3-yl (5-(3-(trifluoromethoxy)phenyl)-2,3-dihydro-1H-inden-1-yl)carbamate] | 7.56
9 | O=C(NC1CCc2cc(-c3ccccc3F)ccc21)O[C@@H]1CN2CCC1CC2 (stereo partly drawn) [Example 9, (S)-quinuclidin-3-yl (5-(2-fluorophenyl)-2,3-dihydro-1H-inden-1-yl)carbamate] | 7.03
10 | O=C(NC1CCc2cc(-c3ccccc3Cl)ccc21)O[C@@H]1CN2CCC1CC2 (stereo partly drawn) [Example 10, (S)-quinuclidin-3-yl (5-(2-chlorophenyl)-2,3-dihydro-1H-inden-1-yl)carbamate] | 7.18
11 | O=C(NC1CCc2cc(-c3ccccc3C(F)(F)F)ccc21)O[C@@H]1CN2CCC1CC2 (stereo partly drawn) [Example 11, (S)-quinuclidin-3-yl (5-(2-(trifluoromethyl)phenyl)-2,3-dihydro-1H-inden-1-yl)carbamate] | 6.91
12 | O=C(NC1CCc2cc(-c3ccccc3OC(F)(F)F)ccc21)O[C@@H]1CN2CCC1CC2 (stereo partly drawn) [Example 12, (S)-quinuclidin-3-yl (5-(2-(trifluoromethoxy)phenyl)-2,3-dihydro-1H-inden-1-yl)carbamate] | 7.14
13 | Cc1ccc(-c2ccc3c(c2)CCC3NC(=O)O[C@@H]2CN3CCC2CC3)cc1 (stereo partly drawn) [Example 13, (S)-quinuclidin-3-yl (5-(p-tolyl)-2,3-dihydro-1H-inden-1-yl)carbamate] | 7.38
14 | O=C(NC1CCc2cc(-c3ccc(OC(F)F)cc3)ccc21)O[C@@H]1CN2CCC1CC2 (stereo partly drawn) [Example 14, (S)-quinuclidin-3-yl (5-(4-(difluoromethoxy)phenyl)-2,3-dihydro-1H-inden-1-yl)carbamate] | 7.27
15 | O=C(NC1CCc2cc(-c3ccc(F)c(F)c3)ccc21)O[C@@H]1CN2CCC1CC2 (stereo partly drawn) [Example 15, (S)-quinuclidin-3-yl (5-(3,4-difluorophenyl)-2,3-dihydro-1H-inden-1-yl)carbamate] | 7.46
16 | O=C(NC1CCc2cc(-c3ccc(F)cc3F)ccc21)O[C@@H]1CN2CCC1CC2 (stereo partly drawn) [Example 16, (S)-quinuclidin-3-yl (5-(2,4-difluorophenyl)-2,3-dihydro-1H-inden-1-yl)carbamate] | 7.25
